Measurements as given in PubChem BioAssay AID1918956 (Molecular Pharmacology Branch, DTP, NCI, 2023).

Tested on: OVCAR-5 complex spheroids, viability
Experiment: Anticancer human tumor OVCAR-5 cell line growth inhibition;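 note: spheroids exposed to agents for seven days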;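 for viability, T/C: 100% = DMSO vehicle control wells viability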
Conditions: for IC50: curve of first compound; for viability, T/C: stronger effect = lower value
How it was run: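 Complex spheroids of tumor cells with HUVEC and human MSCs, exposed to iadademstat combined with other agents. Each agent tested in half-log steps from near clinical Cmax (else 10 microM top), DMSO ≤0.25%.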

[1] = second compound 0.1 µM, first compound 0.0316 µM
[2] = second compound 0.1 µM, first compound 0.1 µM
[3] = second compound 0.316 µM, first compound 0.0316 µM
[4] = second compound 0.316 µM, first compound 0.1 µM
[5] = second compound 1 µM, first compound 0.0316 µM
[6] = second compound 1 µM, first compound 0.1 µM
[7] = second compound 3.16 µM, first compound 0.0316 µM
[8] = second compound 3.16 µM, first compound 0.1 µM
[9] = second compound 10 µM, first compound 0.0316 µM
[10] = second compound 10 µM, first compound 0.1 µM
[11] = second compound 0.1 µM, first compound 0.000949 µM
[12] = second compound 0.1 µM, first compound 0.003 µM
[13] = second compound 0.1 µM, first compound 0.00949 µM
[14] = second compound 0.1 µM, first compound 0.03 µM
[15] = second compound 0.1 µM, first compound 0.0949 µM
[16] = second compound 0.1 µM, first compound 0.3 µM
[17] = second compound 0.316 µM, first compound 0.000949 µM
[18] = second compound 0.316 µM, first compound 0.003 µM
[19] = second compound 0.316 µM, first compound 0.00949 µM
[20] = second compound 0.316 µM, first compound 0.03 µM
[21] = second compound 0.316 µM, first compound 0.0949 µM
[22] = second compound 0.316 µM, first compound 0.3 µM
[23] = second compound 1 µM, first compound 0.000949 µM
[24] = second compound 1 µM, first compound 0.003 µM
[25] = second compound 1 µM, first compound 0.00949 µM
[26] = second compound 1 µM, first compound 0.03 µM
[27] = second compound 1 µM, first compound 0.0949 µM
[28] = second compound 1 µM, first compound 0.3 µM
[29] = second compound 3.16 µM, first compound 0.000949 µM
[30] = second compound 3.16 µM, first compound 0.003 µM
[31] = second compound 3.16 µM, first compound 0.00949 µM
[32] = second compound 3.16 µM, first compound 0.03 µM
[33] = second compound 3.16 µM, first compound 0.0949 µM
[34] = second compound 3.16 µM, first compound 0.3 µM
[35] = second compound 10 µM, first compound 0.000949 µM
[36] = second compound 10 µM, first compound 0.003 µM
[37] = second compound 10 µM, first compound 0.00949 µM
[38] = second compound 10 µM, first compound 0.03 µM
[39] = second compound 10 µM, first compound 0.0949 µM
[40] = second compound 10 µM, first compound 0.3 µM

## CC[C@@]1(O)C(=O)OCc2c1cc1n(c2=O)Cc2cc3c(CN(C)C)c(O)ccc3nc2-1 + NC1CCC(NC2CC2c2ccccc2)CC1
Second compound 0.1 µM
  IC50: 5.66 nM
Second compound 0.316 µM
  IC50: 10.9 nM
Second compound 1 µM
  IC50: 11.2 nM
Second compound 3.16 µM
  IC50: 12.1 nM
Second compound 10 µM
  IC50: 9.89 nM
Second compound 0.1 µM, first compound 0.000316 µM
  viability, T/C: 103%
Second compound 0.1 µM, first compound 0.001 µM
  viability, T/C: 105%
Second compound 0.1 µM, first compound 0.00316 µM
  viability, T/C: 58.8%
Second compound 0.1 µM, first compound 0.01 µM
  viability, T/C: 50.2%
[1]
  viability, T/C: 48%
[2]
  viability, T/C: 23.4%
Second compound 0.316 µM, first compound 0.000316 µM
  viability, T/C: 112%
Second compound 0.316 µM, first compound 0.001 µM
  viability, T/C: 97.7%
Second compound 0.316 µM, first compound 0.00316 µM
  viability, T/C: 56.5%
Second compound 0.316 µM, first compound 0.01 µM
  viability, T/C: 49.8%
[3]
  viability, T/C: 50%
[4]
  viability, T/C: 24%
Second compound 1 µM, first compound 0.000316 µM
  viability, T/C: 105%
Second compound 1 µM, first compound 0.001 µM
  viability, T/C: 93.3%
Second compound 1 µM, first compound 0.00316 µM
  viability, T/C: 56.9%
Second compound 1 µM, first compound 0.01 µM
  viability, T/C: 51.2%
[5]
  viability, T/C: 47.7%
[6]
  viability, T/C: 26.7%
Second compound 3.16 µM, first compound 0.000316 µM
  viability, T/C: 109%
Second compound 3.16 µM, first compound 0.001 µM
  viability, T/C: 98.5%
Second compound 3.16 µM, first compound 0.00316 µM
  viability, T/C: 62.4%
Second compound 3.16 µM, first compound 0.01 µM
  viability, T/C: 51.3%
[7]
  viability, T/C: 49.3%
[8]
  viability, T/C: 28.2%
Second compound 10 µM, first compound 0.000316 µM
  viability, T/C: 91.1%
Second compound 10 µM, first compound 0.001 µM
  viability, T/C: 85.5%
Second compound 10 µM, first compound 0.00316 µM
  viability, T/C: 51.8%
Second compound 10 µM, first compound 0.01 µM
  viability, T/C: 49.3%
[9]
  viability, T/C: 48.7%
[10]
  viability, T/C: 27.7%

## CCc1c2c(nc3ccc(O)cc13)-c1cc3c(c(=O)n1C2)COC(=O)[C@]3(O)CC + NC1CCC(NC2CC2c2ccccc2)CC1
Second compound 0.1 µM
  IC50: < 0.949 nM
Second compound 0.316 µM
  IC50: < 0.949 nM
Second compound 1 µM
  IC50: < 0.949 nM
Second compound 3.16 µM
  IC50: < 0.949 nM
Second compound 10 µM
  IC50: < 0.949 nM
[11]
  viability, T/C: 36.5%
[12]
  viability, T/C: 20.8%
[13]
  viability, T/C: 9.21%
[14]
  viability, T/C: 4.18%
[15]
  viability, T/C: 1.08%
[16]
  viability, T/C: 0.71%
[17]
  viability, T/C: 37%
[18]
  viability, T/C: 21.9%
[19]
  viability, T/C: 10.2%
[20]
  viability, T/C: 5.04%
[21]
  viability, T/C: 1.52%
[22]
  viability, T/C: 0.83%
[23]
  viability, T/C: 39.9%
[24]
  viability, T/C: 25.3%
[25]
  viability, T/C: 11.1%
[26]
  viability, T/C: 5.17%
[27]
  viability, T/C: 1.3%
[28]
  viability, T/C: 0.78%
[29]
  viability, T/C: 41.6%
[30]
  viability, T/C: 24.6%
[31]
  viability, T/C: 12.8%
[32]
  viability, T/C: 5.77%
[33]
  viability, T/C: 1.49%
[34]
  viability, T/C: 0.71%
[35]
  viability, T/C: 41%
[36]
  viability, T/C: 25.4%
[37]
  viability, T/C: 12.4%
[38]
  viability, T/C: 5.97%
[39]
  viability, T/C: 1.81%
[40]
  viability, T/C: 2.3%

## Nc1ccccc1NC(=O)c1ccc(CNC(=O)OCc2cccnc2)cc1 + NC1CCC(NC2CC2c2ccccc2)CC1
Second compound 0.1 µM
  IC50: 246 nM
Second compound 0.316 µM
  IC50: 258 nM
Second compound 1 µM
  IC50: 292 nM
Second compound 3.16 µM
  IC50: 252 nM
Second compound 10 µM
  IC50: 170 nM
[13]
  viability, T/C: 97.2%
[14]
  viability, T/C: 88.6%
[15]
  viability, T/C: 69%
[16]
  viability, T/C: 46.3%
Second compound 0.1 µM, first compound 0.949 µM
  viability, T/C: 23.8%
Second compound 0.1 µM, first compound 3 µM
  viability, T/C: 9.78%
[19]
  viability, T/C: 109%
[20]
  viability, T/C: 90.8%
[21]
  viability, T/C: 74.4%
[22]
  viability, T/C: 45.5%
Second compound 0.316 µM, first compound 0.949 µM
  viability, T/C: 25%
Second compound 0.316 µM, first compound 3 µM
  viability, T/C: 10.4%
[25]
  viability, T/C: 101%
[26]
  viability, T/C: 97%
[27]
  viability, T/C: 75.6%
[28]
  viability, T/C: 48%
Second compound 1 µM, first compound 0.949 µM
  viability, T/C: 27.3%
Second compound 1 µM, first compound 3 µM
  viability, T/C: 10.3%
[31]
  viability, T/C: 98.9%
[32]
  viability, T/C: 78.5%
[33]
  viability, T/C: 69.7%
[34]
  viability, T/C: 47%
Second compound 3.16 µM, first compound 0.949 µM
  viability, T/C: 26.5%
Second compound 3.16 µM, first compound 3 µM
  viability, T/C: 10.8%
[37]
  viability, T/C: 86.2%
[38]
  viability, T/C: 71.6%
[39]
  viability, T/C: 57.2%
[40]
  viability, T/C: 42.4%
Second compound 10 µM, first compound 0.949 µM
  viability, T/C: 28.6%
Second compound 10 µM, first compound 3 µM
  viability, T/C: 9.2%

## Nc1ccn(C2OC(CO)C(O)C2(F)F)c(=O)n1 (stereo not given) + NC1CCC(NC2CC2c2ccccc2)CC1
Second compound 0.1 µM
  IC50: < 0.949 nM
Second compound 0.316 µM
  IC50: < 0.949 nM
Second compound 1 µM
  IC50: < 0.949 nM
Second compound 3.16 µM
  IC50: < 0.949 nM
Second compound 10 µM
  IC50: < 0.949 nM
[11]
  viability, T/C: 27.8%
[12]
  viability, T/C: 29%
[13]
  viability, T/C: 30.3%
[14]
  viability, T/C: 31.4%
[15]
  viability, T/C: 30.7%
[16]
  viability, T/C: 28.6%
[17]
  viability, T/C: 29.5%
[18]
  viability, T/C: 30.3%
[19]
  viability, T/C: 31%
[20]
  viability, T/C: 32.4%
[21]
  viability, T/C: 30.8%
[22]
  viability, T/C: 30.6%
[23]
  viability, T/C: 32.8%
[24]
  viability, T/C: 33.5%
[25]
  viability, T/C: 34.3%
[26]
  viability, T/C: 33.2%
[27]
  viability, T/C: 32.7%
[28]
  viability, T/C: 31.2%
[29]
  viability, T/C: 32.8%
[30]
  viability, T/C: 34.4%
[31]
  viability, T/C: 35.5%
[32]
  viability, T/C: 36.3%
[33]
  viability, T/C: 33.7%
[34]
  viability, T/C: 31.9%
[35]
  viability, T/C: 33.3%
[36]
  viability, T/C: 34.9%
[37]
  viability, T/C: 36.8%
[38]
  viability, T/C: 34.6%
[39]
  viability, T/C: 34.9%
[40]
  viability, T/C: 33.1%

## O=C(c1cc(Cc2n[nH]c(=O)c3ccccc23)ccc1F)N1CCN(C(=O)C2CC2)CC1 + NC1CCC(NC2CC2c2ccccc2)CC1
Second compound 0.1 µM
  IC50: > 10000 nM
Second compound 0.316 µM
  IC50: > 10000 nM
Second compound 1 µM
  IC50: > 10000 nM
Second compound 3.16 µM
  IC50: > 10000 nM
Second compound 10 µM
  IC50: > 10000 nM
[1]
  viability, T/C: 110%
[2]
  viability, T/C: 116%
Second compound 0.1 µM, first compound 0.316 µM
  viability, T/C: 104%
Second compound 0.1 µM, first compound 1 µM
  viability, T/C: 102%
Second compound 0.1 µM, first compound 3.16 µM
  viability, T/C: 92.9%
Second compound 0.1 µM, first compound 10 µM
  viability, T/C: 90.5%
[3]
  viability, T/C: 101%
[4]
  viability, T/C: 105%
Second compound 0.316 µM, first compound 0.316 µM
  viability, T/C: 105%
Second compound 0.316 µM, first compound 1 µM
  viability, T/C: 101%
Second compound 0.316 µM, first compound 3.16 µM
  viability, T/C: 98.2%
Second compound 0.316 µM, first compound 10 µM
  viability, T/C: 89.7%
[5]
  viability, T/C: 103%
[6]
  viability, T/C: 103%
Second compound 1 µM, first compound 0.316 µM
  viability, T/C: 106%
Second compound 1 µM, first compound 1 µM
  viability, T/C: 88%
Second compound 1 µM, first compound 3.16 µM
  viability, T/C: 95.3%
Second compound 1 µM, first compound 10 µM
  viability, T/C: 82%
[7]
  viability, T/C: 95.6%
[8]
  viability, T/C: 101%
Second compound 3.16 µM, first compound 0.316 µM
  viability, T/C: 93%
Second compound 3.16 µM, first compound 1 µM
  viability, T/C: 100%
Second compound 3.16 µM, first compound 3.16 µM
  viability, T/C: 88.5%
Second compound 3.16 µM, first compound 10 µM
  viability, T/C: 74.2%
[9]
  viability, T/C: 92.4%
[10]
  viability, T/C: 97%
Second compound 10 µM, first compound 0.316 µM
  viability, T/C: 96.3%
Second compound 10 µM, first compound 1 µM
  viability, T/C: 83.2%
Second compound 10 µM, first compound 3.16 µM
  viability, T/C: 79%
Second compound 10 µM, first compound 10 µM
  viability, T/C: 61.1%
